Consider one compound from patent US20240150277A1, “Covalent PPARG inverse-agonists” (Bayer Aktiengesellschaft, priority 2022, published 2024).

Each structure is given as a SMILES string. pIC50: −log10 of the molar value.

One experiment has as its target T1, PPARG receptors (Homo sapiens, UniProt P37231).
T1 construct: leading to PPARG dependent expression of the NanoLuc@ Luciferase; endogenous in cells
T1 sequence (P37231 1-505): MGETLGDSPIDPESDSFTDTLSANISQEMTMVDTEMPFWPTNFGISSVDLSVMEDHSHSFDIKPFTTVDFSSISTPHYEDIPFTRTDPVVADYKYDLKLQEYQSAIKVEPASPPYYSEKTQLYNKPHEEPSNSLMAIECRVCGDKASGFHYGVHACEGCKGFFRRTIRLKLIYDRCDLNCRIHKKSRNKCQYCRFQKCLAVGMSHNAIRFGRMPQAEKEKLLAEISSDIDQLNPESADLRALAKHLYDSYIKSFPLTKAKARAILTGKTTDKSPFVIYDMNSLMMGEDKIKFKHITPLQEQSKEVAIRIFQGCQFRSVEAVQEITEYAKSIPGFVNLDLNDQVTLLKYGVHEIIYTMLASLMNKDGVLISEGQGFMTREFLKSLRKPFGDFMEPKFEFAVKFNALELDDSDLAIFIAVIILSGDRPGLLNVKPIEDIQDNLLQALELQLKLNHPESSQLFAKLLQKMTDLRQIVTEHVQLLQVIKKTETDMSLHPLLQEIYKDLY
The experiment in a line: RT-112-FABP4-NLuc Reporter Gene Assay (inverse agonism). The experiment is classed as cell-based. Conditions: incubated over night. (In general: A reporter such as luciferase makes a cellular process visible.)

For a further experiment, the system named is UMUC9 cells. As to the kind of experiment: Proliferation UMUC9 H2B-GFP assay (Incucyte). Conditions: 7 days of treatment. The experiment is classed as cell-based.

As to `Cc1cc(N2CCOCC2)cnc1NC(=O)c1cc(C(=O)NCc2ccc(F)c(F)c2)c(F)c(C)c1Cl` [Example 18, 4-chloro-N^1-[(3,4-difluorophenyl)methyl]-6-fluoro-5-methyl-N^3-[3-methyl-5-(morpholin-4-yl)pyridin-2-yl]benzene-1,3-dicarboxamide], the pIC50 (as a rule, the negative decadic logarithm of the IC50, by convention in mol/L) on PPARG receptors (PPARG_RT-112_FABP4_NLuc_inverse agonist IC50 - [mol/l], bladder cancer cell line RT-112/84, NanoLuc in FABP4 3′ UTR, 50 μM to 0.03 nM) is 8.87; in the experiment with UMUC9 cells (UM-UC-9, relative IC50, Day 1 subtracted, percentage of DMSO control) it was 7.51. Also, the Emax was 95% on PPARG receptors (RT112/84, read-out: PPARG_RT-112_FABP4_NLuc_inverse agonist Efficacy - [%], bladder cancer cell line RT-112/84, NanoLuc in FABP4 3′ UTR) and 59.5% with UMUC9 cells (UM-UC-9, 168 h, % efficacy (span)).
